Results from publication PMC2606939 (The Journal of General Physiology, 2009).

Columns and labels:
[1] = biological target: CLC-0 (Torpedo marmorata, UniProt P21564, E166A); assay: cell-based
[2] = biological target: CLC-0 (Torpedo marmorata, UniProt P21564, E166G); assay: cell-based
CLC-0 (Torpedo marmorata, UniProt P21564, E166G), sequence (P21564 whole entry E166G): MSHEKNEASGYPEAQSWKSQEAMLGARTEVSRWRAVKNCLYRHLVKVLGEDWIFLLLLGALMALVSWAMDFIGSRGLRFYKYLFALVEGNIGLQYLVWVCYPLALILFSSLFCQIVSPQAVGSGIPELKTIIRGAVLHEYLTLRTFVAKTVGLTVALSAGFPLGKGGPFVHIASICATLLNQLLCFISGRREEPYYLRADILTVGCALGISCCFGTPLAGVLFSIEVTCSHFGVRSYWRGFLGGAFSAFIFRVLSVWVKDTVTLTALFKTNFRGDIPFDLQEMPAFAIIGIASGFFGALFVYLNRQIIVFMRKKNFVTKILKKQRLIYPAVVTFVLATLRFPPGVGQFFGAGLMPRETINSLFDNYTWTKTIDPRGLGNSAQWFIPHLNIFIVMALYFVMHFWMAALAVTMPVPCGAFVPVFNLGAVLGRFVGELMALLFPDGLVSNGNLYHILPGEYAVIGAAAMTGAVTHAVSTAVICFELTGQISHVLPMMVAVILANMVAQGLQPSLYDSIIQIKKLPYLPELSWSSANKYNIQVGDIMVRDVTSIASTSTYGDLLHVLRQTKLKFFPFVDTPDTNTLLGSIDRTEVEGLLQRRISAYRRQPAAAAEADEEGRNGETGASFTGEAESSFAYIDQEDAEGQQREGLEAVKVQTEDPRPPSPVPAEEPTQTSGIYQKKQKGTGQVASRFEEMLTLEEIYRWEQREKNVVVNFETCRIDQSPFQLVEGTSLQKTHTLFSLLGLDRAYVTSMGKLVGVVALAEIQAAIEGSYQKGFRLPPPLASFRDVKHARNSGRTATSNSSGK

CLC-0 (Torpedo marmorata, UniProt P21564, E166A), sequence (P21564 whole entry E166A): as the sequence (P21564 whole entry E166G) above, with G166A counted along it

IC50 [1]: 120 ± 20 µM
IC50 [2]: 160 ± 10 µM
Compound: CCCCCCCC(=O)O [OA, octanoate]
